≈ marks a conversion by molar mass, not a printed value. Like-named read-outs stand apart in the source and are kept apart here.
Columns and labels:
Format in all cases: cell-based
[1] = test system: test strains; test: Antimicrobial activity in vitro, test strains overall; conditions: for antimicrobial activities compared with starting materials (1), (2) and (33): 9-O-acylated vs free 9-hydroxyl
Description: (§1) The effect of the first aspect of the present invention resides in the creation of a novel and useful 16-membered macrolide derivative. Antimicrobial activities of the compounds of the present invention were determined by measuring minimum inhibitory concentration (MIC). Minimum inhibitory concentration was determined by the agar plate dilution method in the following manner.
(§2) Test strains were subjected to seed culture using Sensitivity test broth (STB, Nissui Pharmaceutical) except that the strains belonging to the genus Streptococcus, Branhamella and Haemophilus were cultured on blood agar plate. A 5 μl portion of cell suspension of the test strains having about 10^6 CFU/ml was inoculated into Sensitivity disk agar (SDA, Nissui Pharmaceutical) supplemented with 5% horse blood and incubated at 37° C. for 20 hours. Then, MIC was measured. […] Antimicrobial activities in vitro of the compounds (1) and (2) are shown in Table 1, and those of the compounds (3) and (4) in Table 3.

[2] = test system: M. luteus ATCC9341; test: MIC, agar plate dilution method; conditions: Micrococcus luteus
Description: as §1, §2

[3] = test system: S. aureus MS15009/pMS98; test: MIC, agar plate dilution method; conditions: Staphylococcus aureus, MS15009/PMS98, 20 h, read-out: Antimicrobial activity (MIC), 37° C., 20 hours, SDA with 5% horse blood
Description: as §1, §2

[4] = test system: S. aureus 209P JC-1; test: MIC, agar plate dilution method; conditions: Staphylococcus aureus, 209P, 20 h, read-out: Antimicrobial activity (MIC), 37° C., 20 hours, SDA with 5% horse blood
Description: as §1, §2

[5] = test system: S. epidermidis ATCC14990; test: MIC, agar plate dilution method; conditions: Staphylococcus epidermidis, ATCC14990, 20 h, read-out: Antimicrobial activity (MIC), 37° C., 20 hours, SDA with 5% horse blood
Description: as §1, §2

[6] = test system: E. faecalis W-73; test: MIC, agar plate dilution method; conditions: Enterococcus faecalis, W73, 20 h, read-out: Antimicrobial activity (MIC)
Description: as §1, §2

[7] = test system: E. coli NIHJ JC-2; test: MIC, agar plate dilution method; conditions: Escherichia coli, NIHJJC2, 20 h, 37° C., SDA with 5% horse blood, read-out: Antimicrobial activity (MIC)
Description: as §1, §2

[8] = test system: S. aureus M126; test: MIC, agar plate dilution method; conditions: Staphylococcus aureus, 37° C., 20 hours, SDA with 5% horse blood, read-out: Antimicrobial activity (MIC)
Description: as §1, §2

[9] = test system: S. pneumoniae IP692; test: MIC, agar plate dilution method; conditions: Streptococcus pneumoniae, IP692, 20 h, read-out: Antimicrobial activity (MIC), 37° C., 20 hours, SDA with 5% horse blood
Description: as §1, §2

[10] = test system: H. influenzae Type b; test: MIC, agar plate dilution method; conditions: Haemophilus influenzae, 20 h, read-out: Antimicrobial activity (MIC), 37° C., 20 hours, SDA with 5% horse blood
Description: as §1, §2

[11] = test system: S. pneumoniae Type 1; test: MIC, agar plate dilution method; conditions: Streptococcus pneumoniae
Description: as §1, §2

[12] = test system: B. catarrhalis W-0500; test: MIC, agar plate dilution method; conditions: Moraxella catarrhalis, W0500; 37° C., 20 hours, SDA with 5% horse blood; read-out: Antimicrobial activity (MIC)
Description: as §1, §2

[13] = test system: S. pyogenes Cook; test: MIC, agar plate dilution method; conditions: Streptococcus pyogenes
Description: as §1, §2

[14] = test system: S. aureus M133; test: MIC, agar plate dilution method; conditions: Staphylococcus aureus, M133, 20 h, read-out: Antimicrobial activity (MIC), 37° C., 20 hours, SDA with 5% horse blood
Description: as §1, §2

[15] = test system: K. pneumoniae PCI602; test: MIC, agar plate dilution method; conditions: Klebsiella pneumoniae, PCI602, 20 h, 37° C., SDA with 5% horse blood, read-out: Antimicrobial activity (MIC)
Description: as §1, §2

[16] = test system: S. aureus MS15026; test: MIC, agar plate dilution method; conditions: Staphylococcus aureus, 37° C., 20 hours, SDA with 5% horse blood, read-out: Antimicrobial activity (MIC)
Description: as §1, §2

[17] = test system: S. aureus MS15027; test: MIC, agar plate dilution method; conditions: Staphylococcus aureus, MS15027, 20 h, read-out: Antimicrobial activity (MIC), 37° C., 20 hours, SDA with 5% horse blood
Description: as §1, §2

[18] = test system: B. catarrhalis W-0506; test: MIC, agar plate dilution method; conditions: Moraxella catarrhalis, W0506; 37° C., 20 hours, SDA with 5% horse blood; read-out: Antimicrobial activity (MIC)
Description: as §1, §2

[19] = test system: S. aureus MS15009/pMS99; test: MIC, agar plate dilution method; conditions: Staphylococcus aureus, MS15009/PMS99, 20 h, read-out: Antimicrobial activity (MIC)
Description: as §1, §2

[20] = test system: clinically important Gram-positive bacteria; test: Antimicrobial activity / growth inhibition
Description: as §1, §2

Structure (SMILES)	MIC [3] [µg/mL]	MIC [4] [µg/mL]	MIC [5] [µg/mL]	MIC [6] [µg/mL]	MIC [7] [µg/mL]	MIC [8] [µg/mL]	MIC [9] [µg/mL]	MIC [10] [µg/mL]	MIC [12] [µg/mL]	MIC [14] [µg/mL]	MIC [15] [µg/mL]	MIC [16] [µg/mL]	MIC [17] [µg/mL]	MIC [18] [µg/mL]	MIC [19] [µg/mL]	antimicrobial activities compared with starting materials (1), (2) and (33) [1]	further results
CO[C@@H]1[C@@H](O[C@@H]2O[C@H](C)[C@@H](O[C@H]3C[C@@](C)(OC)[C@@H](O)[C@H](C)O3)[C@H](N(C)C)[C@H]2O)[C@@H](CC=O)C[C@@H](C)[C@@H](O)/C=C/C=C/C[C@@H](C)OC(=O)C[C@H]1O [(4), 3"-O-methylleucomycin V]	0.39 (≈ 0.545 µM)	0.39 (≈ 0.545 µM)	0.78 (≈ 1.09 µM)	0.78 (≈ 1.09 µM)	> 100	> 100	0.1 (≈ 0.14 µM)	12.5 (≈ 17.5 µM)	1.56 (≈ 2.18 µM)	0.78 (≈ 1.09 µM)	> 100	> 100	0.78 (≈ 1.09 µM)	1.56 (≈ 2.18 µM)	> 100		improvement of MIC values over corresponding compounds with free 3"-hydroxyl (midecamycin M1, leucomycin V) ([1]; most of the test strains): improved two to three times; MIC ([2]; ATCC9341, 37° C., 20 hours, SDA with 5% horse blood, read-out: Antimicrobial activity (MIC)): 0.05 µg/mL (≈ 0.0698 µM); MIC ([11]; TYPE1, 37° C., 20 hours, SDA with 5% horse blood, read-out: Antimicrobial activity (MIC)): 0.05 µg/mL (≈ 0.0698 µM); MIC ([13]; 20 h, read-out: Antimicrobial activity (MIC), 37° C., 20 hours, SDA with 5% horse blood): 0.1 µg/mL (≈ 0.14 µM); antimicrobial activities (in words) [20]: strong antimicrobial activities
CCOC(C)O[C@H]1/C=C/C=C/C[C@@H](C)OC(=O)C[C@@H](OC(=O)CC)[C@H](OC)[C@@H](O[C@@H]2O[C@H](C)[C@@H](O[C@H]3C[C@@](C)(OC)[C@@H](OC(=O)CC)[C@H](C)O3)[C@H](N(C)C)[C@H]2O)[C@@H](CC=O)C[C@H]1C (single isomer, unassigned) [(16L)]																	antimicrobial activities compared with compound (1) ([1]; vs compound (1)): inferior to those of the compound (1)
CCCC(=O)O[C@H]1[C@H](C)O[C@@H](O[C@H]2[C@H](N(C)C)[C@@H](O)[C@H](O[C@H]3[C@@H](CC=O)C[C@@H](C)[C@@H](OC(=O)CC)/C=C/C=C/C[C@@H](C)OC(=O)C[C@@H](O)[C@@H]3OC)O[C@@H]2C)C[C@@]1(C)OC [(40), 9-O-propionyl-3"-O-methylleucomycin A5]																strong antimicrobial activities by themselves though slightly lower than those of their starting materials	
CCCC(=O)O[C@H]1[C@H](C)O[C@@H](O[C@H]2[C@H](N(C)C)[C@@H](O)[C@H](O[C@H]3[C@@H](CC=O)C[C@@H](C)[C@@H](OC(C)=O)/C=C/C=C/C[C@@H](C)OC(=O)C[C@@H](O)[C@@H]3OC)O[C@@H]2C)C[C@@]1(C)OC [(39), 9-O-acetyl-3"-O-methylleucomycin A5]																strong antimicrobial activities by themselves though slightly lower than those of their starting materials	
CCC(=O)O[C@@H]1CC(=O)O[C@H](C)C/C=C/C=C/[C@H](O)[C@H](C)C[C@H](CC=O)[C@H](O[C@@H]2O[C@H](C)[C@@H](O[C@H]3C[C@@](C)(O)[C@@H](O)[C@H](C)O3)[C@H](N(C)C)[C@H]2O)[C@H]1OC [MDM-M1, midecamycin M1, reference compound]	6.25 (≈ 8.25 µM)	6.25 (≈ 8.25 µM)	12.5 (≈ 16.5 µM)	12.5 (≈ 16.5 µM)	> 100	> 100	0.78 (≈ 1.03 µM)	100 (≈ 132 µM)	25 (≈ 33 µM)	12.5 (≈ 16.5 µM)	> 100	> 100	6.25 (≈ 8.25 µM)	25 (≈ 33 µM)	> 100		MIC ([2]; ATCC9341, 20 h, read-out: Antimicrobial activity (MIC), 37° C., 20 hours, SDA with 5% horse blood): 0.39 µg/mL (≈ 0.515 µM); MIC ([11]; TYPE1, 20 h, read-out: Antimicrobial activity (MIC), 37° C., 20 hours, SDA with 5% horse blood): 0.78 µg/mL (≈ 1.03 µM); MIC ([13]; 37° C., 20 hours, SDA with 5% horse blood, read-out: Antimicrobial activity (MIC)): 1.56 µg/mL (≈ 2.06 µM)

Reference: patent US5602106A, “16-membered macrolide derivatives” (priority 1993, dated 1997)
